Measured values: patent US7803792B2, “Quaternary ammonium compounds” (Asahi Kasei Pharma Corporation, priority 2002, dated 2010)

Assays:
[1] = test system: bile duct partial ligation model; assay: Cholestasis-caused hepatopathy model, bile duct partial ligation, IBAT inhibiting compounds, blood after 24 hours (Test Example 13); format: in vivo, rat; conditions: blood 24 hours after administration, N = 3, average ± standard error
Procedure: “Cholestasis-Caused Hepatopathy” Model (Bile Duct Partial Ligation Model)
In this test example, the model of cholestasis-caused hepatopathy was tested according to the method described in Test Example 5.
That is, the abdomens of 8 to 10 weeks old SD (IGS) male rats were cut open under anesthesia with pentobarbital and partial ligation surgery of the bile duct was carried out. After the surgery, 200 mg/kg of bile acid and an IBAT inhibiting compound were forcibly orally administered to the rats (each n=3). As a control group, physiological saline […] was administered (n=3). To observe the effect of the partial ligation surgery, a sham group (the abdomen was cut open under anesthesia with pentobarbital but partial ligation surgery of the bile duct was not carried out) and an untreated group were established (each n=3). After 24 hours from the administration a blood sample was taken from the abdominal aorta and AST, ALT, and ALP in the blood were measured using the method described in Test Example 5.

[2] = test system: bile acid loaded model; assay: Cholestasis-caused hepatopathy model, bile acid loaded model, 4.5 days (Test Example 14); format: in vivo, rat; conditions: administration period 4.5 days, N = 6, average ± standard error
Procedure: “Cholestasis-Caused Hepatopathy” Model (Bile Acid Loaded Model)
In this test example, the model of hepatopathy due to loading of bile acid was carried out similarly to the protocol B in Test Example 5. However, the administration period in this test example was changed to 4.5 days. […] Therefore, the compounds have proven to be useful as drugs for the treatment and prevention of cholestasis-caused hepatopathy, in particular as drugs for the treatment and prevention of primary biliary cirrhosis and primary sclerosing cholangitis. Moreover, the compounds of other examples of the present invention not shown in Tables 18 and 19 can be expected to have excellent ameliorating effects on cholestasis-caused hepatopathy.

[3] = test system: Cholic acid-loaded rat model; assay: Bile acid-decreasing effect in portal vein of rats loaded with cholic acid (Test Example 2); format: in vivo; conditions: portal vein blood after 2 hours, HCO-60 0.1%
Procedure: Bile Acid-Decreasing Effect in Portal Vein of Rats Loaded With Cholic Acid
In this test example, the test for confirming the bile acid-decreasing effect in portal vein of cholic acid-loaded rats was carried out according to the method described in Pharmacology and Therapeutics [Jpn Pharmacol. Ther., Vol. 24 Supplement, 1996, 103 (S-577)-110 (S-584)].
That is, 7 to 9 weeks old SD (IGS) rats were starved on the day before the test and thereafter. […] After 2 hours from the administration, a sample of blood was taken from a portal vein and total serum bile acid level was measured to study the effect of the test compound (n=6). Further, as a control group, a group (n=6) loaded with cholic acid (200 mg/kg) only was prepared and the same test procedure was followed. A commercially available kit (trade name: SOTANJUSAN-TEST WAKO-(SOTANJUSAN=total bile acid), manufactured by WAKO PURE CHEMICAL […], LTD.) was used for the measurement of bile acid. Assuming the value of the control group, which is a group in which no test compound was used, as 100%, the rate of decrease (percentage (%) of decrease) of the bile acid level when a fixed amount of the test compound was used was determined.

[4] = molecular target: T1, human IBAT (Homo sapiens, UniProt Q12908); assay: In vitro assay of temporarily expressed human IBAT transporter using Cos 7 cells (Test Example 8); format: cell-based; conditions: Cos 7 cells temporarily expressing human IBAT; [3H] taurocholate 8 μM, 37° C., 60 minutes
T1 construct: expressed in transfected cells; host or cells: Cos 7
T1 sequence (Q12908 1-348): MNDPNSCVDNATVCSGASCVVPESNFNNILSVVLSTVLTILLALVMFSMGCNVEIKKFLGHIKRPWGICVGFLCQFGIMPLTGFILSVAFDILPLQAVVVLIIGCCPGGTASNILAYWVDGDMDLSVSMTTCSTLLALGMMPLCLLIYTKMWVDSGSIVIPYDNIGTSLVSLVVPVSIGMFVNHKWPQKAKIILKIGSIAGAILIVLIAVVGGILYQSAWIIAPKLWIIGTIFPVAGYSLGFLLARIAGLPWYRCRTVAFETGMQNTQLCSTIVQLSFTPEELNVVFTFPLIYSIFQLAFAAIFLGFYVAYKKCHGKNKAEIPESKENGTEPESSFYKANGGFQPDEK
Summary of the method: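 Cos 7 cells transiently transfected with human or rat IBAT cDNA, assayed one day later in Hank's buffer with 25 mM glucose, 10 mM HEPES (pH 7.4) plus compound. Uptake of 8 μM [^3H]taurocholate over 60 min at 37 °C, stopped with 1 mM taurocholate washes; lysate radioactivity by scintillation counting.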

[5] = test system: Caco 2 cells; assay: Toxicity with respect to alimentary canal: cytotoxicity to Caco 2, LDH activity (Test Example 12); format: cell-based, human; conditions: LDH activity after 2 hours; for Toxicity (%) to Caco 2: relative to cytolytic agent = 100%
Procedure: Toxicity With Respect to Alimentary Canal
To evaluate the toxicity of the compounds of the present invention to the alimentary canal, the cytotoxicity to Caco 2, which is a human originated small intestine epithelial cell line, was tested by referring to the method of Bestwick C S et al. [Biochimica et Biophysica Acta 1474: 47-55, 1999].
That is, Caco 2 cells (purchased from ATCC) were inoculated on a 96-well plate such that there were 10,000 cells/well [MEM-E medium, 10% FBS (Fetal Bovine Serum), 1% NEAA (Non Essential Amino Acid) solution, (both manufactured by GIBCO PHARMACEUTICAL COMPANY)]. After culturing for 48 hours, the test compounds were diluted with the culture medium and added to the respective wells. After 2 hours, 50 μl of the culture broth was collected and the LDH activity in the collected culture broth was measured by using an LDH activity measuring kit (CytoTox 96 Non-Radioactive Cytotoxicity Assay, manufactured by PROMEGA CORPORATION). Relative activities were calculated assuming the LDH activity as 100% when the Caco 2 cells were treated with the cytolytic agent and the obtained relative activities were taken as cytotoxicities to Caco 2 cell.

[6] = 0.1 mg/kg oral with cholic acid 200 mg/kg

CCC(CC)CC(=O)c1c(C(=O)OC)c(-c2ccc(OC)c(OC)c2)c2c(OC)c(OC)c(OC)cc2c1O [Compound E, Methyl 1-(3,4-dimethoxyphenyl)-3-(3-ethylvaleryl)-4-hydroxy-6,7,8-trimethoxy-2-naphthoate]
ALP ([1]; Table 17, 10 mg/kg oral): 1345 ± 145 IU/L
ALT ([1]; Table 17, 10 mg/kg oral): 180 ± 68 IU/L
AST ([1]; Table 17, 10 mg/kg oral): 280 ± 72 IU/L
ALT ([2]; Table 19, 10 mg/kg): 46 ± 3 IU/L
AST ([2]; Table 19, 10 mg/kg): 105 ± 11 IU/L

CCC(CC)CC(=O)c1c(C(=O)OC)c(-c2ccc(OC)c(OC)c2)c2c(OC)c(OC)c(OC)cc2c1OC1OC(C(=O)O)C(O)C(O)C1O [Compound F, {1-O-[4-(3,4-dimethoxyphenyl)-2-(3-ethyl-pentanoyl)-5,6,7-trimethoxy-3-(methoxycarbonyl)naphthalen-1-yl]-β-D-glucopyranosido}uronic acid]
ALP ([1]; Table 17, 10 mg/kg oral): 1423 ± 115 IU/L
ALT ([1]; Table 17, 10 mg/kg oral): 214 ± 53 IU/L
AST ([1]; Table 17, 10 mg/kg oral): 320 ± 66 IU/L
ALT ([2]; Table 19, 10 mg/kg): 58 ± 5 IU/L
AST ([2]; Table 19, 10 mg/kg): 123 ± 16 IU/L

CCCC[C@@]1(CC)CS(=O)(=O)c2cc(OC)c(OC)cc2[C@H](c2ccccc2)N1 (relative stereo) [Compound B, Trans-3-butyl-3-ethyl-2,3,4,5-tetrahydro-7,8-dimethoxy-5-phenyl-1,4-benzothiazepine-1,1-dioxide]
ALP ([1]; Table 17, 1 mg/kg oral): 1335 ± 116 IU/L
ALT ([1]; Table 17, 1 mg/kg oral): 138 ± 54 IU/L
AST ([1]; Table 17, 1 mg/kg oral): 261 ± 63 IU/L
ALT ([2]; Table 19, 0.1 mg/kg): 54 ± 6 IU/L
AST ([2]; Table 19, 0.1 mg/kg): 110 ± 4 IU/L

CCCCC1(CCCC)CS(=O)(=O)c2ccc(N(C)C)cc2C(c2cccc(NC(=S)Nc3ccc(C[n+]4ccc5ccccc5c4)cc3)c2)N1.[Br-] (stereo not drawn) [Example 3783]
Rate of decrease (%) of bile acid [3, 6]: 16%
IC50 [4]: 48 nM
Toxicity (%) to Caco 2 ([5]; 3 μM): <1%
Toxicity (%) to Caco 2 ([5]; 10 μM): <1%
Toxicity (%) to Caco 2 ([5]; 30 μM): <1%

CCCCC1(CCCC)CS(=O)(=O)c2ccc(N(C)C)cc2C(c2ccc(OCc3ccc(C[N+]45CCN(CC4)CC5)cc3)cc2)N1.[Cl-] (stereo not drawn) [Comparative Example 2, 1-{4-[4-(3,3-Dibutyl-7-dimethylamino-1,1-dioxo-2,3,4,5-tetrahydro-1,4-benzothiazepin-5-yl)phenoxymethyl]benzyl}-4-aza-1-azoniabicyclo[2.2.2]octane chloride]
cytotoxicity to Caco 2 cells ([5]; in words): showed cytotoxicity to small intestine epithelial cell line at low concentrations
ALP ([1]; Table 17, 10 mg/kg oral): 1266 ± 160 IU/L
ALT ([1]; Table 17, 10 mg/kg oral): 281 ± 103 IU/L
AST ([1]; Table 17, 10 mg/kg oral): 547 ± 159 IU/L

CCCC[C@@]1(CC)CS(=O)(=O)c2ccccc2[C@H](c2ccccc2)N1 (relative stereo) [Compound C, Trans-3-butyl-3-ethyl-2,3,4,5-tetrahydro-5-phenyl-1,4-benzothiazepine-1,1-dioxide]
ALP ([1]; Table 16, 10 mg/kg oral): 948 ± 208 IU/L
ALT ([1]; Table 16, 10 mg/kg oral): 113 ± 44 IU/L
AST ([1]; Table 16, 10 mg/kg oral): 313 ± 82 IU/L
ALT ([2]; Table 18, 10 mg/kg): 53 ± 6 IU/L
AST ([2]; Table 18, 10 mg/kg): 100 ± 2 IU/L

CCCCC1(CCCC)CS(=O)(=O)c2ccc(N(C)C)cc2[C@H](c2cccc([N+](C)(C)C)c2)[C@@H]1O.[I-] (relative stereo) [Compound D, Cis-[3-(3,3-dibutyl-7-dimethylamino-4-hydroxy-1,1-dioxo-2,3,4,5-tetrahydro-1-benzothiepin-5-yl)phenyl]trimethyl-ammonium iodide]
ALP ([1]; Table 16, 10 mg/kg oral): 715 ± 24 IU/L
ALT ([1]; Table 16, 10 mg/kg oral): 73 ± 17 IU/L
AST ([1]; Table 16, 10 mg/kg oral): 275 ± 12 IU/L
ALT ([2]; Table 18, 10 mg/kg): 46 ± 4 IU/L
AST ([2]; Table 18, 10 mg/kg): 100 ± 9 IU/L

CCCCC1(CCCC)CS(=O)(=O)c2ccc(N(C)C)cc2C(c2cccc(NC(=S)Nc3ccc(CC[N+]45CCC(CC4)CC5)cc3)c2)N1 (stereo not drawn) [Example 5298]
Rate of decrease (%) of bile acid ([3]; 0.3 mg/kg oral with cholic acid 200 mg/kg): 40%
IC50 [4]: 76 nM
Toxicity (%) to Caco 2 ([5]; 3 μM): <1%
Toxicity (%) to Caco 2 ([5]; 10 μM): <1%
Toxicity (%) to Caco 2 ([5]; 30 μM): <1%

CCCCC1(CCCC)CS(=O)(=O)c2ccc(N(C)C)cc2C(c2cccc(NC(=S)Nc3ccc(C[N+](C)(C)CCCC)cc3)c2)N1.[Br-] (stereo not drawn) [Example 3409]
Rate of decrease (%) of bile acid [3, 6]: 28%
IC50 [4]: 45 nM
Toxicity (%) to Caco 2 ([5]; 3 μM): <1%
Toxicity (%) to Caco 2 ([5]; 10 μM): <1%
Toxicity (%) to Caco 2 ([5]; 30 μM): <1%

CCCCC1(CCCC)CS(=O)(=O)c2ccc(N(C)C)cc2C(c2cccc(NC(=S)Nc3ccc(C[N+]4(Cc5ccccc5)CCC(CCO)CC4)cc3)c2)N1.[Br-] (stereo not drawn) [Example 3608]
Rate of decrease (%) of bile acid [3, 6]: 43%
IC50 [4]: 59 nM
Toxicity (%) to Caco 2 ([5]; 3 μM): <1%
Toxicity (%) to Caco 2 ([5]; 10 μM): <1%
Toxicity (%) to Caco 2 ([5]; 30 μM): <1%

CCCCC1(CCCC)CS(=O)(=O)c2ccc(N(C)C)cc2C(c2cccc(NC(=S)Nc3ccc(C[n+]4ccc(CC)cc4)cc3)c2)N1.[Br-] (stereo not drawn) [Example 3710]
Rate of decrease (%) of bile acid [3, 6]: 20%
IC50 [4]: 52 nM
Toxicity (%) to Caco 2 ([5]; 3 μM): <1%
Toxicity (%) to Caco 2 ([5]; 10 μM): <1%
Toxicity (%) to Caco 2 ([5]; 30 μM): <1%
